The target of the test is T1, membrane ATP synthase (Homo sapiens, UniProt P06576+P25705+P36542).
T1 construct: Measurement of the effect of OPFP1 on the production of extracellular ATP in the SH-SY5Y cell line; endogenous in cells; host or cells: SH-SY5Y human neuroblastoma cells
In words: Production of extracellular ATP in SH-SY5Y cell line. In kind it is cell-based. The note with it: after 5′ pre-incubation, OPFP1 mixture 10 μg/ml, piceatannol 4 μM, read-out: maximum inhibition of ATP synthesis. As for the experimental part:
FIG. 6. Production of extracellular ATP. Measurement of the effect of OPFP1 on the production of extracellular ATP in the SH-SY5Y cell line. (A) analysis of the effects on ATP production at different pre-incubation times; (B) evaluation of the effects elicited by different concentrations of the OPFP1 mixture (results are the mean of three independent experiments).
The mixture not only binds this enzyme complex but also modulates its activity. As positive control, piceatannol (3,4,3′,5′-tetrahydroxy-trans-stilbene) was used, that is a resveratrol metabolite well-known for its inhibitory activity on the production of extracellular ATP.

Broadly, the inhibition is the share of the control response that was lost under treatment.

`Oc1cc(O)cc(/C=C/c2ccc(O)c(O)c2)c1` [piceatannol, 3,4,3′,5′-tetrahydroxy-trans-stilbene]: the inhibition at 4 µM was determined as 97%.

The record behind these values is patent US20110311562A1, “Glycolipid Mixture with Anti-Inflammatory Activity Obtained from Oscillatoria Planktothrix” (priority 2009, published 2011).
